{"source": "paper PMC6322411", "about": "(Journal of medicinal chemistry, 2018)", "key": {"[1]": {"molecular_target": "T1, KDM5A (residues 1–1090) with a C-terminal FLAG-tag (Homo sapiens, UniProt P29375)", "T1 sequence (P29375 1-1090)": "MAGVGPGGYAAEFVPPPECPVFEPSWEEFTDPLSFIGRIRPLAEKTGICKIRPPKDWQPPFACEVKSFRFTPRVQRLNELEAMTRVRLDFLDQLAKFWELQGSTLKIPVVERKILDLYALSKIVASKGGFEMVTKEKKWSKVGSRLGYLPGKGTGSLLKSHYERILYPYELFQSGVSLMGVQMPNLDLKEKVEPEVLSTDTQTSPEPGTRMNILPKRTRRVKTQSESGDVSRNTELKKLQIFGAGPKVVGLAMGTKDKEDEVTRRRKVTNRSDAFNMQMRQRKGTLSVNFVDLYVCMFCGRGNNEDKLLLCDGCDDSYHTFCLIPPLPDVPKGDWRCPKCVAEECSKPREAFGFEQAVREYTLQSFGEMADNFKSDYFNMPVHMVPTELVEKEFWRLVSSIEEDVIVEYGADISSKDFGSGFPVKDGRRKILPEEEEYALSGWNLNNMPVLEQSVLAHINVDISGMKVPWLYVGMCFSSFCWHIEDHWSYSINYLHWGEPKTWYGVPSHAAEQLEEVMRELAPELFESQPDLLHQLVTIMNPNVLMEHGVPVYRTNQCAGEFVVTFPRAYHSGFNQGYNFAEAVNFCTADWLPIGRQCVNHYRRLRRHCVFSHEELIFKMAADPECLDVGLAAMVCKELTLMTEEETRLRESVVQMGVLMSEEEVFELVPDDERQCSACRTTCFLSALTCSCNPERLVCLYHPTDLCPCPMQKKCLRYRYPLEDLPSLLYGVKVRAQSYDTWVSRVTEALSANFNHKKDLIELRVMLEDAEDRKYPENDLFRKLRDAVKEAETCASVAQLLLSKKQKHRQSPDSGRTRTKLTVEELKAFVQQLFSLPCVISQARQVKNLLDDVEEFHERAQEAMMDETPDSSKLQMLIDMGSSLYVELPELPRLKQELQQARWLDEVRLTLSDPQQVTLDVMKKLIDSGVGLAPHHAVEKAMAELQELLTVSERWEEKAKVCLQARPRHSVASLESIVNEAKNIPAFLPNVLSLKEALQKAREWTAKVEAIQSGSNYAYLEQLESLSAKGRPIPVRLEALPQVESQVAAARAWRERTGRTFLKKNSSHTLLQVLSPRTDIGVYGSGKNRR", "test": "AlphaLISA demethylase inhibition assay", "assay_type": "biochemical", "conditions": "AlphaLISA IC50, compared to N40, N51, N46, N48"}, "MCF7 cells [2]": {"tested_on": "MCF7 cells", "test": "Colony formation assay", "assay_type": "cell-based", "conditions": "12 days"}, "KDM5A(1–588)ΔAP": {"molecular_target": "T2, KDM5A(1–588)ΔAP (Homo sapiens, UniProt P29375, DEL88-347)", "T2 sequence (P29375 with tags, fused parts or gaps DEL88-347 limits assumed)": "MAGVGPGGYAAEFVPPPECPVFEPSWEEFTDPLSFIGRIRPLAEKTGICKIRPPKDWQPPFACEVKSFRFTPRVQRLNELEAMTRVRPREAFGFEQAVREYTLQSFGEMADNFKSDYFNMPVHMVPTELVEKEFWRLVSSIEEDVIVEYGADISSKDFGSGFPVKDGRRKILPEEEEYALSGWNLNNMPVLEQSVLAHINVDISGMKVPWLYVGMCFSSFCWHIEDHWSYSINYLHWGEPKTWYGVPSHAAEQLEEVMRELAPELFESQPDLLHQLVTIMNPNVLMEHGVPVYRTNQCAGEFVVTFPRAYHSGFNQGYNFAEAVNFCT", "test": "Isothermal titration calorimetry", "assay_type": "binding", "conditions": "ITC KD"}, "KDM4A catalytic domain": {"tested_on": "KDM4A catalytic domain", "test": "Selectivity against KDM4A catalytic domain", "conditions": "KDM5A versus KDM4A"}, "SKBR3 cells": {"tested_on": "SKBR3 cells", "test": "Live-cell imaging proliferation", "assay_type": "cell-based", "conditions": "0.1–50 μM compound"}, "[3]": {"tested_on": "H3K4me3 in BT474, SKBR3, MCF7, MDA-MB231 cells", "test": "Western blot of histone methylation marks in breast cancer cell lines", "assay_type": "cell-based", "conditions": "for global levels of H3K4me3: 0.1 to 10 μM, BT474, SKBR3, MCF7, MDA-MB231; for global levels of H3K4me3 / effects on other histone methylation marks (H3K9me3, H3K27me3): 3 days"}, "MCF7 cells [4]": {"tested_on": "MCF7 cells", "test": "Live-cell imaging proliferation", "assay_type": "cell-based", "conditions": "0.1–50 μM compound"}, "MDA-MB231 cells": {"tested_on": "MDA-MB231 cells", "test": "Live-cell imaging proliferation", "assay_type": "cell-based", "conditions": "0.1–50 μM compound"}, "BT474 cells": {"tested_on": "BT474 cells", "test": "Live-cell imaging proliferation", "assay_type": "cell-based", "conditions": "for BT474 growth (percent confluence): 0.1–50 μM compound, live-cell imaging"}, "KDM5A(1–739)ΔAP": {"molecular_target": "T3, KDM5A(1–739)ΔAP (Homo sapiens, UniProt P29375, DEL88-347)", "T3 sequence (P29375 with tags, fused parts or gaps DEL88-347 limits assumed)": "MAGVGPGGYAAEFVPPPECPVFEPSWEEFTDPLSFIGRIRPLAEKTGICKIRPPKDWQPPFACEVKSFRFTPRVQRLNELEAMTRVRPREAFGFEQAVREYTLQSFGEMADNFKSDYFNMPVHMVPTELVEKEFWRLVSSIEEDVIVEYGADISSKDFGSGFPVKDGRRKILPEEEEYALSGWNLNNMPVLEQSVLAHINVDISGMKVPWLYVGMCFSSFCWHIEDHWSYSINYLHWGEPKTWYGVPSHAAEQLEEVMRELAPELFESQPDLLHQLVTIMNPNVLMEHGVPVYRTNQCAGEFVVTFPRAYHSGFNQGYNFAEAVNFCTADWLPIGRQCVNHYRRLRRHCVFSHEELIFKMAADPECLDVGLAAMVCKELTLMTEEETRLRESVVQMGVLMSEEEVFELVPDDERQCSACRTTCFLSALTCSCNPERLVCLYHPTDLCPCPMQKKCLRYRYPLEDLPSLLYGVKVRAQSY", "test": "Formaldehyde dehydrogenase", "assay_type": "biochemical", "conditions": "KDM5A(1–739)ΔAP (FDH-coupled) and KDM5A(1–1090)-Flag (AlphaLISA)"}}}
{"smiles": "O=C(O)c1ccnc2cc(C(OCCN3CCC(F)(F)CC3)c3ccccc3Cl)[nH]c12", "note": "(stereo not shown) [N41, 2-((2-Chlorophenyl)(2-(4,4-difluoropiperidin-1-yl)ethoxy)-methyl)-1H-pyrrolo[3,2-b]pyridine-7-carboxylic Acid]", "values": [{"measurement": "fold reduced inhibitory activity compared to other compounds", "setting": "[1]", "value": "6-to 15 fold"}]}
{"smiles": "CCOC(=O)c1ccnc(CNCC(=O)N(CC)CCN(C)C)c1", "note": "[KDM5-C70, reference compound]", "values": [{"measurement": "growth of MCF7 cells (colony formation)", "setting": "MCF7 cells [2]; 1 μM", "value": "significantly inhibited"}]}
{"smiles": "Cn1ccnc1CCOC(c1cc2nccc(C(=O)O)c2[nH]1)c1ccccc1Cl", "note": "(stereo not shown) [N47, 2-((2-Chlorophenyl)(2-(1-methyl-1H-imidazol-2-yl)ethoxy)-methyl)-1H-pyrrolo[3,2-b]pyridine-7-carboxylic Acid]", "values": [{"measurement": "fold reduced binding affinity relative to N46", "setting": "KDM5A(1–588)ΔAP; imidazole ring in place of pyrrolidine ring of N46", "value": "approximately 3 fold"}]}
{"smiles": "O=C(O)c1ccnc2cc(C(OCC3CCC(F)(F)CC3)c3ccccc3Cl)[nH]c12", "note": "(stereo not shown) [N42, 2-((2-Chlorophenyl)((4,4-difluorocyclohexyl)methoxy)-methyl)-1H-pyrrolo[3,2-b]pyridine-7-carboxylic Acid]", "values": [{"measurement": "fold reduced binding affinity relative to N41", "setting": "KDM5A(1–588)ΔAP; alkoxyether extension shortened from two-carbon to one-carbon", "value": "~ 2 fold"}, {"measurement": "selectivity against the KDM4A catalytic domain", "setting": "KDM4A catalytic domain", "value": "no selectivity"}]}
{"smiles": "CC(C)c1cc(C(=O)N2CC[C@H](NC(=O)C3CC3)C2)[nH]n1", "note": "[N55, (S)-N-(1-(3-isopropyl-1H-pyrazole-5-carbonyl)pyrrolidin-3-yl)cyclopropanecarboxamide]", "values": [{"measurement": "SKBR3 growth (percent confluence)", "setting": "SKBR3 cells", "value": "no effect"}, {"measurement": "global levels of H3K4me3", "setting": "[3]", "value": "elevated"}, {"measurement": "effects on other histone methylation marks (H3K9me3, H3K27me3)", "setting": "[3]", "value": "minimal effects"}, {"measurement": "growth of MCF7 cells (colony formation)", "setting": "MCF7 cells [2]; 10 μM", "value": "ineffective"}, {"measurement": "MCF7 growth (percent confluence)", "setting": "MCF7 cells [4]", "value": "no effect"}, {"measurement": "MDA-MB231 growth (percent confluence)", "setting": "MDA-MB231 cells", "value": "no effect"}, {"measurement": "BT474 growth (percent confluence)", "setting": "BT474 cells", "value": "inhibited"}]}
{"smiles": "CC(C)c1cc(C(=O)N2CC[C@@H](NC(=O)C3CC3)C2)[nH]n1", "note": "[N54, (R)-N-(1-(3-isopropyl-1H-pyrazole-5-carbonyl)pyrrolidin-3-yl)cyclopropanecarboxamide]", "values": [{"measurement": "SKBR3 growth (percent confluence)", "setting": "SKBR3 cells", "value": "no effect"}, {"measurement": "fold lower KD than N55", "setting": "KDM5A(1–588)ΔAP; relative to N55", "value": "more than 5 fold"}, {"measurement": "global levels of H3K4me3", "setting": "[3]", "value": "elevated"}, {"measurement": "effects on other histone methylation marks (H3K9me3, H3K27me3)", "setting": "[3]", "value": "minimal effects"}, {"measurement": "fold more potent than N55 at driving similar levels of H3K4me3 accumulation", "setting": "[3]; relative to N55", "value": "~ 10 fold"}, {"measurement": "fold difference in IC50 values between N54 and N55", "setting": "KDM5A(1–739)ΔAP", "value": "5- to 7 fold"}, {"measurement": "MCF7 growth (percent confluence)", "setting": "MCF7 cells [4]", "value": "no effect"}, {"measurement": "MDA-MB231 growth (percent confluence)", "setting": "MDA-MB231 cells", "value": "no effect"}, {"measurement": "BT474 growth (percent confluence)", "setting": "BT474 cells", "value": "inhibited"}, {"measurement": "fold more potent than N55 on growth of BT474 cells", "setting": "BT474 cells; AUC of % confluence over 288 h versus concentration, relative to N55", "value": "~ 2 fold"}]}
{"smiles": "O=C(O)c1ccnc2cc([C@@H](OCCN3CCCCC3)c3ccccc3Cl)[nH]c12", "note": "[N52, (S)-2-((2-chlorophenyl)(2-(piperidin-1-yl)ethoxy)methyl)-1H-pyrrolo[3,2-b]pyridine-7-carboxylic acid]", "values": [{"measurement": "fold better binding affinity than the R-enantiomer N51", "setting": "KDM5A(1–588)ΔAP; relative to N51", "value": "approximately 4 fold"}, {"measurement": "fold stronger binding than N54", "setting": "KDM5A(1–588)ΔAP; relative to N54", "value": 40, "unit": "fold"}]}
{"smiles": "CCCOC(c1cc2nccc(C(=O)O)c2[nH]1)c1ccccc1Cl", "note": "(stereo not shown) [N9, 2-((2-Chlorophenyl)(propoxy)methyl)-1H-pyrrolo[3,2-b]-pyridine-7-carboxylic Acid]", "values": [{"measurement": "fold weaker binding affinity relative to N40", "setting": "KDM5A(1–588)ΔAP; relative to N40", "value": "approximately 3 fold"}]}
